Like-named read-outs stand apart in the source and are kept apart here.
Experiments:
Assay in all cases: Biological screening of extracts of induced Actinobacteria, BacTiter-Glo assay
Assay type in all cases: cell-based
[1] = test system: Escherichia coli ATCC 35218; conditions: FIG. 4
[2] = test system: Candida albicans ATCC 753; conditions: FIG. 10
[3] = test system: Pseudomonas aeruginosa ATCC 27853
[4] = test system: Staphylococcus aureus ATCC 33592
[5] = chemical inducer 3.3 μg/ml in medium 5294

C[S+](C)[O-] [DMSO]
extracts that showed >50% activity against Escherichia coli ATCC 35218, share by culture condition ([1]; chemical inducer 50 μl/ml in medium 5294): 3.6%
extracts that showed >50% activity against Candida albicans ATCC 753, share by culture condition ([2]; chemical inducer 10 μl/ml in medium 5294): 3.5%

[Cl][Ni][Cl] [NiCl2]
extracts that showed >50% activity against Candida albicans ATCC 753, share by culture condition [2, 5]: 3.7%

[Cl-].[Cl-].[Co+2] [CoCl2]
extracts showing >50% activity against Pseudomonas aeruginosa ATCC 27853, share by culture condition [3]: 3.8%
extracts that showed >50% activity against Staphylococcus aureus ATCC 33592, share by culture condition [4]: 3.6%

[Cl-].[Cl-].[Sr+2] [SrCl2]
extracts showing >50% activity against Pseudomonas aeruginosa ATCC 27853, share by culture condition ([3]; chemical inducer 3.3 μg/ml in medium 5294, FIG. 6): 3.8%
extracts that showed >50% activity against Staphylococcus aureus ATCC 33592, share by culture condition ([4]; chemical inducer 3.3 μg/ml in medium 5294, FIG. 8): 3.5%
extracts that showed >50% activity against Candida albicans ATCC 753, share by culture condition ([2]; chemical inducer 1.6 μg/ml in medium 5294): 3.5%

O=[Se]([O-])O.[Na+] [NaHSeO3]
extracts that showed >50% activity against Escherichia coli ATCC 35218, share by culture condition [1, 5]: 3.3%

Source: patent publication US20150099667A1, “METHODS FOR THE ACTIVATION OF SILENT GENES IN A MICROORGANISM” (priority 2012, published 2015)
